In ChEMBL document CHEMBL4359853, “Antiproliferative activity of (R)-4'-methylklavuzon on hepatocellular carcinoma cells and EpCAM+/CD133+ cancer stem cells via SIRT1 and Exportin-1 (CRM1) inhibition” (Eur J Med Chem, 2019):
Activity calls are given as the source filed them. The rule behind the calls is not given here.

What was measured:
Huh-7 [1] = experiment: Cytotoxicity against human HuH7 cells negative EpCAM/CD133 assessed as reduction in cell viability measured after 24 hrs by MTT assay; format: functional, cell-based; settings: Huh-7, 24 h
Huh-7 [2] = experiment: Cytotoxicity against human HuH7 cells expressing positive EpCAM/CD133 assessed as reduction in cell viability measured after 24 hrs by MTT assay; format: functional, cell-based; settings: Huh-7, 24 h
Homo sapiens [3] = organism: Homo sapiens; experiment: Inhibition of Sirtuin/HDAC in human HUH7 cells assessed as decrease in cell viability measured after 24 hrs; format: cell-based
Huh-7 [4] = experiment: Upregulation of SIRT1 in human HuH7 cells measured after 24 hrs by ELISA; format: functional, cell-based
HepG2 [5] = experiment: Cytotoxicity against human HepG2 cells assessed as reduction in cell viability measured after 48 hrs by MTT assay; format: functional, cell-based; settings: HepG2, 48 h
Huh-7 [6] = experiment: Upregulation of SIRT1 in human HuH7 cells assessed as fold change at 1 uM measured after 24 hrs by ELISA relative to control; format: functional
Huh-7 [7] = experiment: Upregulation of p21 expression in human HuH7 cells expressing negative EpCAM/CD133 at 1 to 3 uM measured after 72 hrs by SYBR-green based qPCR analysis; format: functional, cell-based
Huh-7 [8] = experiment: Induction of apoptosis in human HuH7 negative EpCAM/CD133 cells assessed as increase in early apoptotic cells measured after 48 hrs by Annexin V-FITC/propidium iodide staining based flow cytometry analysis; format: functional, cell-based
Huh-7 [9] = experiment: Induction of apoptosis in human HuH7 cells assessed as increase in early apoptotic cells at 10 uM measured after 48 hrs by Annexin V-FITC/propidium iodide staining based flow cytometry analysis; format: functional, cell-based
[10] = target: Exportin-1 (Homo sapiens) (UniProt O14980); experiment: Inhibition of CRM1 in human HepG2 cells assessed as accumulation of RIOK2 in nucleus at 1 and 10 uM measured after 24 hrs by DAPI staining based confocal microscopy analysis; format: cell-based
Huh-7 [11] = experiment: Induction of apoptosis in human HuH7 cells assessed as change in cell numbers at 0.1 to 10 uM measured after 48 hrs by 2D microscopic analysis; format: functional, cell-based
[12] = target: T1, NAD-dependent protein deacetylase sirtuin-1 (Homo sapiens) (UniProt Q96EB6); experiment: Inhibition of human recombinant SIRT1 using FLUOR DE LYS SIRT1, deacetylase as substrate preincubated for 2 mins followed by substrate addition measured after 1 hr in presence of NAD+ by fluorescence assay
T1 sequence (whole entry): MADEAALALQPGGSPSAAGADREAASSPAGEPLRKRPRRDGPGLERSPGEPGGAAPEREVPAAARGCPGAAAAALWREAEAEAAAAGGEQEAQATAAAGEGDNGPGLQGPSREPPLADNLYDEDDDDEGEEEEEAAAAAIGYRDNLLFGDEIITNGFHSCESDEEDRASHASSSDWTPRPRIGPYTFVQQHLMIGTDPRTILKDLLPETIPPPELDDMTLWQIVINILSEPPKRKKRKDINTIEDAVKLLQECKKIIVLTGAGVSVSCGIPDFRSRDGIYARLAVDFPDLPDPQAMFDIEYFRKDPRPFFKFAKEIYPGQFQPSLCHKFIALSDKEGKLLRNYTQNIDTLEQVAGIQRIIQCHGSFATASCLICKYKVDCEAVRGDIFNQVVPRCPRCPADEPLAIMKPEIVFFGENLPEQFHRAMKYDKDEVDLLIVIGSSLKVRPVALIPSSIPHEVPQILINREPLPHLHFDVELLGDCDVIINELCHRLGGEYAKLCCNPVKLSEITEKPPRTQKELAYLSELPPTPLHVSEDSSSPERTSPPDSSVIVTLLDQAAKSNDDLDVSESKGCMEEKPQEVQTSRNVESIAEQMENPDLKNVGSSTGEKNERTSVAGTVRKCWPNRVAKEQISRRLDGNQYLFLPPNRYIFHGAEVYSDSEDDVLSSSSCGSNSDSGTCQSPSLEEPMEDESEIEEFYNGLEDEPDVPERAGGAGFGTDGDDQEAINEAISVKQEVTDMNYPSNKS

Huh-7 [13] = experiment: Cell cycle arrest in human HuH7 cells assessed as increase in cell accumulation at G2 phase at 10 uM measured after 48 hrs by propidium iodide staining based flow cytometry analysis; format: functional
Huh-7 [14] = experiment: Cytotoxicity against human HuH7 cells assessed as reduction in cell viability measured after 48 to 72 hrs by MTT assay; format: functional, cell-based
Homo sapiens [15] = organism: Homo sapiens; experiment: Inhibition of class 1/2 HDAC in human HuH7 nuclear extract at 0.1 to 81 uM after 24 hrs by fluorescence based assay
Huh-7 [16] = experiment: Induction of apoptosis in human HuH7 cells assessed as change in cell morphology at 0.1 to 10 uM measured after 48 hrs by 2D microscopic analysis; format: functional, cell-based
Huh-7 [17] = experiment: Induction of apoptosis in human HuH7 cells expressing positive EpCAM/CD133 assessed as change in cell morphology at 0.1 to 10 uM measured after 48 hrs by 2D microscopic analysis; format: functional, cell-based
Homo sapiens [18] = organism: Homo sapiens; experiment: Inhibition of Sirtuin/HDAC in human HuH7 cells expressing positive EpCAM/CD133 assessed as decrease in enzymatic activity at 0.10 to 5 uM measured after 24 hrs relative to control; format: cell-based
Huh-7 [19] = experiment: Cytotoxicity against human HuH7 cells negative EpCAM/CD133 assessed as reduction in cell viability measured after 48 to 72 hrs by MTT assay; format: functional, cell-based
[20] = target: T1, NAD-dependent protein deacetylase sirtuin-1 (Homo sapiens); experiment: Inhibition of human recombinant SIRT1 at 100 uM using FLUOR DE LYS SIRT1, deacetylase as substrate preincubated for 2 mins followed by substrate addition measured after 1 hr in presence of NAD+ by fluorescence assay relative to control
HepG2 [21] = experiment: Induction of 3D spheroid death in human HepG2 cells assessed as upregulation of p53 measured after 24 hrs by DAPI staining based fluorescence microscopy analysis assay; format: functional, cell-based
Huh-7 [22] = experiment: Induction of apoptosis in human HuH7 cells expressing negative EpCAM/CD133 assessed as change in cell number at 0.1 to 10 uM measured after 48 hrs by 2D microscopic analysis; format: functional, cell-based
HepG2 [23] = experiment: Induction of apoptosis in human 3D HepG2 spheroids at 0.1 uM measured after 24 hrs by propidium iodide staining based immunofluorescence microscopy analysis; format: functional, cell-based
[24] = target: Histone-lysine N-methyltransferase EZH2 (Homo sapiens) (UniProt Q15910); experiment: Activation of EZH2 in human HuH7 cells expressing positive EpCAM/CD133 assessed as upregulation of H3K27me3 expression measured after 4 hrs by Western blot analysis; format: cell-based
Homo sapiens [25] = organism: Homo sapiens; experiment: Inhibition of Sirtuin/HDAC in human HuH7 cells expressing positive EpCAM/CD133 assessed as decrease in cell viability measured after 24 hrs; format: cell-based
Homo sapiens [26] = organism: Homo sapiens; experiment: Inhibition of Sirtuin/HDAC in human HUH7 negative EpCAM/CD133 cells assessed as decrease in enzymatic activity at 0.10 to 5 uM measured after 24 hrs relative to control
Huh-7 [27] = experiment: Upregulation of p21 expression in human HuH7 cells expressing positive EpCAM/CD133 at 1 to 3 uM measured after 72 hrs by SYBR-green based qPCR analysis; format: functional, cell-based
Huh-7 [28] = experiment: Induction of apoptosis in human HuH7 negative EpCAM/CD133 cells assessed as change in cell number at 0.1 to 10 uM measured after 48 hrs by 2D microscopic analysis; format: functional, cell-based

Sequence of Histone-lysine N-methyltransferase EZH2 (Homo sapiens) (Q15910 whole entry, looked up): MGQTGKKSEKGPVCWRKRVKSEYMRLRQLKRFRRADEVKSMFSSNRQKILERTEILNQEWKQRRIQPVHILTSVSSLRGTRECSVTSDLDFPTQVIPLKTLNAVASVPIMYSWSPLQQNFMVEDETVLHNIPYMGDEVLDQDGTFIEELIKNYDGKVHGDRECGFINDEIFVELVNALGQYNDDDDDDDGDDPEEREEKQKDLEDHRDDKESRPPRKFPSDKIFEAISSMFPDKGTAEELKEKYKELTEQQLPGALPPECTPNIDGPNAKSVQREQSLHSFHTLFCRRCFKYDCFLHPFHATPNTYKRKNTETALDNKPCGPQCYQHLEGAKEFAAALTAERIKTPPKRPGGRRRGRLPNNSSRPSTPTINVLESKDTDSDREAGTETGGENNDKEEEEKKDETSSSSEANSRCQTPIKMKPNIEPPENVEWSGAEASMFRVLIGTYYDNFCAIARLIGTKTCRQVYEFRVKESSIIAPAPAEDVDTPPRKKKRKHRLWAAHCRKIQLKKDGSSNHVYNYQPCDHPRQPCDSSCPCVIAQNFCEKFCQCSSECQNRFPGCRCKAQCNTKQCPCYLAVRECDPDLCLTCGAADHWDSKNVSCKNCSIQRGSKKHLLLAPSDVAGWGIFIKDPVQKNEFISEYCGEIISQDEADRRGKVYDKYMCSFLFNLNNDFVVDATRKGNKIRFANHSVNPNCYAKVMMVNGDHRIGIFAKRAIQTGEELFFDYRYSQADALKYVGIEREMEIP
Sequence of Exportin-1 (Homo sapiens) (O14980 whole entry): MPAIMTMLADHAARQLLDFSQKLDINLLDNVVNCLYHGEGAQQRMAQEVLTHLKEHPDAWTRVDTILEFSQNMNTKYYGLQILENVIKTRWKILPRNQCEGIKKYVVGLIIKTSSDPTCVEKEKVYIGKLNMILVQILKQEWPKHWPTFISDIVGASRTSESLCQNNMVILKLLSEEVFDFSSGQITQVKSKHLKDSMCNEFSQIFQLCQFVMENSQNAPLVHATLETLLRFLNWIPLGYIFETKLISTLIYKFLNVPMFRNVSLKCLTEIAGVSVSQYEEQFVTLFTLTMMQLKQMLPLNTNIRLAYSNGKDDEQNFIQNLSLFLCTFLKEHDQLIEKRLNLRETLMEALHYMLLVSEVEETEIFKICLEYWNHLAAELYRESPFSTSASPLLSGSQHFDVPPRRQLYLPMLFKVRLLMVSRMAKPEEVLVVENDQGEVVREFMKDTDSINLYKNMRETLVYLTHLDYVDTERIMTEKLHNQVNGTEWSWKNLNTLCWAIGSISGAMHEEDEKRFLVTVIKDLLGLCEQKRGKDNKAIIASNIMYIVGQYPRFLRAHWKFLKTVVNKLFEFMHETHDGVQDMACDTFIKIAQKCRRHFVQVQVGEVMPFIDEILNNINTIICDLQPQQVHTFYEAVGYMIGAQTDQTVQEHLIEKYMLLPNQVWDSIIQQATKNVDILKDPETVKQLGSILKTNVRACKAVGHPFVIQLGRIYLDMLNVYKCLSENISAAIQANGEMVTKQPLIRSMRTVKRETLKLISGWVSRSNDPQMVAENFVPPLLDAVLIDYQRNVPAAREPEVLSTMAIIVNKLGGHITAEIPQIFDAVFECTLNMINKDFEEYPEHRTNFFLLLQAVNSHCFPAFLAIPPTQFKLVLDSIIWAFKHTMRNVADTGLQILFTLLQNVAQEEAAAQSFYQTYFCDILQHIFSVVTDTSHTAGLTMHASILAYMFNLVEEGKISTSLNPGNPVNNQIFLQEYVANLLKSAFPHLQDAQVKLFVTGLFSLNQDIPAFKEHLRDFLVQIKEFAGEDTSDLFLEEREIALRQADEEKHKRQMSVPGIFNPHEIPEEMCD

inhibition [10]: Active
inhibition [12]: Dose-dependent effect
inhibition (Homo sapiens [15]): inactive
inhibition [20]: 50%
Activity [24]: Active
Activity (Homo sapiens [26]): Active
SMILES: Cc1ccc([C@H]2CC=CC(=O)O2)c2ccccc12
IC50 (Huh-7 [1]): 10000 nM
IC50 (Huh-7 [2]): 10000 nM
inhibition (Homo sapiens [3]): Active
Activity (Huh-7 [4]): Dose-dependent effect
IC50 (HepG2 [5]): 250 nM
fold change (FC) (Huh-7 [6]): 3.3
Activity (Huh-7 [7]): Active
Activity (Huh-7 [8]): Dose-dependent effect
Activity (Huh-7 [9]): Active
Activity (Huh-7 [11]): Active
Activity (Huh-7 [13]): Active
IC50 (Huh-7 [14]): 1250 nM
Activity (Huh-7 [16]): Active
Activity (Huh-7 [17]): Active
inhibition (Homo sapiens [18]): 32 to 39%
IC50 (Huh-7 [19]): 1250 nM
Activity (HepG2 [21]): Dose-dependent effect
Activity (Huh-7 [22]): Active
Activity (HepG2 [23]): inactive
inhibition (Homo sapiens [25]): Active
Activity (Huh-7 [27]): Active
Activity (Huh-7 [28]): Active
